From ChEMBL document CHEMBL3286115, “Design and Syntheses of Anti-Tuberculosis Agents Inspired by BTZ043 Using a Scaffold Simplification Strategy” (ACS Med Chem Lett, 2014) come the findings set out here.

≈ marks a conversion by molar mass, not a printed value. Calls of active or inactive are those of the source. The calls are words filed in the database; no cut-off is given here. Where only a bound is given, the exact number is not on record here.

The subject of series [1] is Mycobacterium tuberculosis. As to the kind of experiment: Antimycobacterial activity against non-replicating Mycobacterium tuberculosis H37Rv by low oxygen recovery assay. In kind it is functional, organism-based.
Series [2] relates to Mycobacterium tuberculosis. The series is described as follows: Antimycobacterial activity against Mycobacterium tuberculosis H37Rv in GAS medium by microplate alamar blue assay. In kind it is functional. On the technique in general: Alamar Blue is a resazurin reagent that responds to reducing activity.
The subject of series [3] is Mycobacterium tuberculosis. The series is described as follows: Antimycobacterial activity against Mycobacterium tuberculosis H37Rv in 7H12 medium by microplate alamar blue assay. Format: functional.
A further series has as its system Vero. The series is described as follows: Cytotoxicity against African green monkey Vero cells. In kind it is cell-based. The following applies: chlorocebus sabaeus.
Series [4] concerns Mycobacterium tuberculosis. As to the kind of experiment: Antimycobacterial activity against Mycobacterium tuberculosis H37Rv. In kind it is functional.

By MIC is commonly meant the lowest concentration that inhibits growth of the organism.

For `C[C@H]1COC2(CCN(S(=O)(=O)c3cc([N+](=O)[O-])cc(C(F)(F)F)c3)CC2)O1`, the result in series [1] was Active. The MIC in series [2] came to 10.2 µM (≈ 4.19 µg/mL); in series [3], 6.99 µM (≈ 2.87 µg/mL). The Activity result in the series with Vero is on record as “Toxic”.

Regarding `O=C(OCc1ccccc1)c1cc([N+](=O)[O-])cc([N+](=O)[O-])c1`, the MIC in series [2] turned out to be 0.27 µM (≈ 0.0816 µg/mL); in series [3], 13 µM (≈ 3.94 µg/mL).

`C[C@H]1COC2(CCN(S(=O)(=O)c3cc(-c4ccccn4)cc(C(F)(F)F)c3)CC2)O1`: the MIC in series [2] was 49.3 µM (≈ 21.8 µg/mL); in series [3] it was above 50 µM.

Consider `C[C@H]1COC2(CCC(C(=O)Nc3cc([N+](=O)[O-])cc([N+](=O)[O-])c3)CC2)O1` (stereo partly drawn), for which the values for the MIC in series [2] and in series [3] were 22.6 µM (≈ 8.26 µg/mL) and 47.9 µM (≈ 17.5 µg/mL), respectively.

Take `C[C@H]1COC2(CCN(S(=O)(=O)c3cc(-c4ccccc4)cc(C(F)(F)F)c3)CC2)O1`: the MIC in series [2] was 17.4 µM (≈ 7.68 µg/mL); in series [3], above 64 µM.

For `C[C@H]1COC2(CCN(S(=O)(=O)c3cc(-c4cccc[n+]4[O-])cc(C(F)(F)F)c3)CC2)O1`, the MIC in series [2] and in series [3] was above 64 µM in each case.

Turning to `C[C@H]1COC2(CCN(c3nc(=O)c4cc(C(F)(F)F)cc([N+](=O)[O-])c4s3)CC2)O1` [BTZ-043], the MIC in series [2] is below 0.02 µM; in series [4], 1 ng/mL (≈ 2.32 nM); in series [3], below 0.02 µM.

On to `C[C@H]1COC2(CCC(C(=O)Nc3cccc(C(F)(F)F)c3)CC2)O1` (stereo partly drawn), for which the MIC in series [2] was 17.9 µM (≈ 6.15 µg/mL); in series [3], above 50 µM.

As for `O=C(OCc1ccccc1)c1cc([N+](=O)[O-])cc(C(F)(F)F)c1`, the MIC in series [2] was 2.03 µM (≈ 0.66 µg/mL); in series [3] it was above 50 µM.

Regarding `C[C@H]1COC2(CCC(C(=O)Nc3cc([N+](=O)[O-])cc(C(F)(F)F)c3)CC2)O1` (stereo partly drawn), the MIC in series [2] came to 18.4 µM (≈ 7.15 µg/mL); in series [3], 23 µM (≈ 8.93 µg/mL).

For the compound `C[C@H]1COC2(CCN(S(=O)(=O)c3cc([N+](=O)[O-])cc([N+](=O)[O-])c3)CC2)O1`, in series [1], the outcome was Active. The results for the MIC in series [2] and in series [3] were 2.05 µM (≈ 0.794 µg/mL) and 1.53 µM (≈ 0.593 µg/mL), respectively. Moreover, the Activity entry in the series with Vero is given as “Non-toxic”.

`C[C@H]1COC2(CCN(S(=O)(=O)c3cc(Br)cc(C(F)(F)F)c3)CC2)O1` returned an MIC in series [3] above 10 µM.
